Source: patent US10610573B2, “NDP-MSH for treatment of inflammatory and/or neurodegenerative disorders of the central nervous system” (Westfaelische Wilhelms—Universitaet Muenster, priority 2013, dated 2020)

Columns and labels:
CD11c-DTR mice = test: EAE in DC-depleted CD11c-DTR mice; type: in vivo, mouse; details: DC depleted by diphtheria toxin, 5 μg i.v. every 48 hours
Description: DC were depleted in C11c-DTR mice as described by Hochweller et al. (2008) by systemic treatment with diphtheria toxin. Subsequently, EAE was induced as described in FIG. 1. 5 μg NDP-MSH were injected intravenously every 48 hours and disease progression was monitored over time.

primary mouse neurons = test: Glutamate-stimulated primary neurons, apoptosis genes and neuronal damage; type: cell-based
Description: FIG. 10 Expression of pro-apoptotic (caspase-8) and anti-apoptotic (Bcl-2) genes in primary mouse neurons after treatment with […] Glutamat or 50 μM Glutamat+1 nM NDP-MSH. Primary murine neurons were stimulated with glutamate which results in apoptosis (increased expression of pro-apoptotic caspase-8 and a reduced expression of anti-apoptotic Bcl-2 relative to PBS-treated controls).
The neuroprotective role of NDP-MSH was further confirmed analyzing neurons from NDP-MSH-treated animals and vehicle-treated controls (isolated before and after MOG immunization) using histological staining tests for the detection of myelin, NeuN, act. Caspase 3 and TUNEL. Further, in vitro stimulation of neurons from embryonic mice with glutamate—which causes cell damage—in the presence or absence of NDP-MSH and subsequent histological staining tests for the detection of myelin, NeuN, act. […] Thus, a neuroprotective effect of NDP-MSH is a very likely explanation for the observed effect in the EAE model.

Devic mice = test: Spontaneous EAE model (Devic mice); type: in vivo, mouse
Description: FIG. 7 Devic mice at the age of 38 days and a clinical score of 7 (severe hind limb paralysis) were injected intravenously with 5 μg NDP-MSH every other day for 3 weeks. […] Disease progression was monitored over time.
To characterize the effects of NDP-MSH in a spontaneous EAE model Devic mice were used. Devic mouse mutants express transgenic T- and B-cell receptors specific for MOG and spontaneously develop EAE at the age of 4-5 weeks (Bettelli et al., 2006).
Starting at the age of 38 days when mice reached a clinical score of 7 (severe hind limb paralysis) animals were injected intravenously with 5 μg NDP-MSH every other day. […] Part of the mice almost completely recovered from disease. At day 60, NDP-MSH treatment was interrupted and mice were monitored for the onset of clinical symptoms.

effector T cells = test: Suppression of effector T cell proliferation in vitro by Treg from treated mice; type: cell-based, mouse
Nur77 = Nur77 expression in NDP-MSH stimulated neurons; type: cell-based; details: vs vehicle-treated controls
[1] = test system: Foxp3+ regulatory T cells; test: Flow cytometry of Foxp3+ regulatory T cells from brain tissue of EAE mice; type: in vivo, mouse; details: day 17 post immunization, vs controls
Description: FIG. 4 Induction of functional regulatory T cells in the CNS by NDP-MSH treatment. Numbers, phenotype, and function of Foxp3^+ regulatory T cells isolated from brain tissue of NDP-MSH and PBS treated mice were analyzed. One representative dotplot (A) as well as the statistical evaluation from n=6 mice (B) is depicted. Cells are gated for CD4 and Foxp3 as well as Helios staining was performed after cell permeabilization. *, p<0.05 versus PBS treated mice.
Numbers, phenotype and function of Foxp3^+ regulatory T cells (Treg) isolated from brain tissue of NDP-MSH and PBS treated mice as described in Ex. 1 was analyzed at day 17 post immunization by flow cytometry analysis.

[2] = test system: rat primary astrocytes and microglia; details: in vitro, via MC-4R signaling; cited from earlier work
MOG-immunized mice = test: MOG-induced EAE, preemptive NDP-MSH injection; type: in vivo, mouse; details: preemptive injection before onset of hind limb paralysis
Excerpt: The neuropeptide α-MSH is a potent immunomodulator capable of inducing immunosuppression and tolerance. Using the mouse model of experimental autoimmune encephalomyelitis (EAE) the present inventors systemically treated MOG-immunized mice with NDP-MSH before and after the onset of hind limb paralysis. […] Since signaling via melanocortin-1-receptor (MC-1R) mediates the immunomodulatory effects of α-MSH, EAE was induced in MC-1R-deficient mice.

[3] = test system: C57BL/6 mice with experimental autoimmune encephalomyelitis (EAE); test: MOG35-55-induced EAE, therapeutic systemic NDP-MSH treatment; type: in vivo, mouse; details: 5 μg NDP-MSH i.v. every 48 h from clinical score 2-3 (day 12), vs PBS
Description: FIG. 1 Effect of systemic NDP-MSH treatment on ongoing Experimental Autoimmune Encephalomyelitis (EAE). C57BL/6 mice were actively immunized by subcutaneous injection of myelin oligodendrocyte glycoprotein (MOG35-55) emulsified in Complete Freund's Adjuvant and systemically treated with 5 μg NDP-MSH or PBS every 48 hours beginning at a clinical score of 2-3. Mice were monitored for clinical score (A) and body weight (B) and sacrificed at day 17. Data from n=17 mice in each group is depicted, *, p<0.05 versus PBS-treated controls.
To investigate whether NDP-MSH is able to inhibit autoimmunity and inflammation in organs different from the skin, such as the central nervous system (CNS), the mouse model of experimental autoimmune encephalomyelitis (EAE), a T cell-mediated inflammatory autoimmune disease resembling human multiple sclerosis, was used.
Therefore, C57BL/6 mice were actively immunized by subcutaneous injection of myelin oligodendrocyte glycoprotein (MOG35-55) emulsified in Complete Freund's Adjuvant at the back skin (day 0). At day 0 and day 2 mice received intraperitoneal injections of 400 ng pertussis toxin and disease development was monitored daily. […] All mice were sacrificed at day 17 and analyzed on a cellular and molecular level. […]

MC-1R deficient mice = test: EAE in MC-1R deficient mice; type: in vivo, mouse; details: treated as in Ex. 1
Excerpt: FIG. 6 Involvement of the melanocortin-1 receptor in effects of NDP-MSH on EAE progression. EAE was induced in MC-1R deficient mice as described in FIG. 1. Subsequently, disease development was monitored over time.
To investigate whether the NDP-MSH induced effects on the progression of EAE were mediated via binding to a functional MC-1R, EAE was induced in MC-1R deficient mice with a point mutation in the MC-1R gene resulting in a truncated protein (Roberts et al., 1993). Mice were immunized with MOG35-55, injected with pertussis toxin and treated with NDP-MSH or PBS as described in Ex. 1. Subsequently, disease development was monitored over time.

brain tissue of EAE mice = test: Histology and immunofluorescence of brain tissue from EAE mice; type: in vivo, mouse; details: day 17 post immunization, vs PBS
Description: FIG. 2 Histological analyses of brain tissue obtained from mice treated as described in FIG. 1. […] One representative image for each group (+NDP-MSH, +PBS) is shown.
Brain tissue from mice treated with NDP-MSH or PBS at day 17 post immunization obtained from Ex. 1 was analyzed. […] One representative overview (A) as well as a sectional enlargement (B) is depicted for each group. […] One representative image for each group is shown.

[4] = test system: Th1 and Th17 cells in the CNS; test: Flow cytometry of pathogenic Th1 and Th17 cells in the CNS of EAE mice; type: in vivo, mouse; details: day 17 post immunization, brain and spinal cord, n=8, vs PBS controls
Description: FIG. 3 Effect of NDP-MSH treatment of numbers of pathogenic Th1 and Th17 cells in the CNS. At day 17 post immunization brain and spinal cord from EAE mice treated with PBS and NDP-MSH as described for FIG. 1 were isolated. Cells were analyzed by multi-color flow cytometry using antibodies against CD4, IL-17, ROR-γt, IFN-γ and T-bet. One representative image (A) as well as the statistical evaluation from n=8 mice in each group (B) is shown, Cells are gated for CD4 and IL-17, ROR-γt, IFN-γ as well as T-bet staining was performed after cell permeabilization.
Reduced numbers of pathogenic Th1 and Th17 cells in the CNS from NDP-MSH treated mice compared to PBS-treated controls. At day 17 post immunization brain and spinal cord were isolated from PBS- and NDP-MSH-treated mice and single cell suspensions were prepared using density gradient centrifugation. Subsequently, cells were analyzed by multi-color flow cytometry using antibodies against CD4, IL-17, ROR-gt, IFN-g and T-bet. […] Cells are gated for CD4 and IL-17, ROR-gt, IFN-g as well as T-bet staining was performed after cell permeabilization.

DEREG mice = test: EAE in Treg-depleted DEREG mice; type: in vivo, mouse; details: Treg depleted by diphtheria toxin, 5 μg i.v. every 48 hours
Description: Treg were depleted in DEREG mice as described by Lahl et al. (2007) by systemic treatment with diphtheria toxin. Subsequently, EAE was induced as described in FIG. 1.
Subsequently, EAE was induced as described in Ex. 1.

dendritic cells = test: DC phenotype in regional lymph nodes of immunized mice; type: in vivo, mouse; details: vs PBS
Description: FIG. 5 Generation of tolerogenic dendritic cells by NDP-MSH treatment. The DC phenotype in regional lymph nodes from immunized NDP-MSH and PBS treated mice was analyzed. One representative dot plot (A) as well as the statistical evaluation from n=2-6 mice (B) is depicted. Cells are gated for MHCII and IL-10 as well as IFN-γ staining was performed after cell permeabilization. *, p<0.05 versus PBS treated mice.
Further, the DC phenotype in regional lymph nodes from immunized NDP-MSH and PBS treated mice was analyzed.

[5] = rat, in vivo; cited from earlier work
[6] = 50 μM glutamate + 1 nM NDP-MSH vs glutamate alone

[Nle^4, D-Phe^7]-α-MSH [NDP-MSH]
disease onset (CD11c-DTR mice): prevented disease onset | expression of anti-apoptotic Bcl-2 (primary mouse neurons; [6]): increased expression of anti-apoptotic Bcl-2 | expression of pro-apoptotic caspase-8 (primary mouse neurons; [6]): reduced expression of pro-apoptotic caspase-8 | glutamate-induced neuronal damage (myelin, NeuN, act. Caspase 3, TUNEL staining) (primary mouse neurons; neurons from embryonic mice, in vitro): reduce the glutamate-induced neuronal damage | disease course (clinical symptoms of EAE) (Devic mice; 5 μg i.v. every other day for 3 weeks from day 38, clinical score 7): significant amelioration of disease in all animals | body weight (Devic mice; 5 μg i.v. every other day for 3 weeks, vs PBS): gained weight | disease recurrence after treatment interruption (Devic mice; treatment interrupted at day 60, several weeks without injection): no disease recurrence | function of Treg from treated mice: proliferation of effector T cells (effector T cells): efficiently inhibited the proliferation of effector T cells | Nur77 receptor expression (Nur77): induction of the neuroprotective Nur77 receptor | numbers of Foxp3+ Treg expressing Helios or CTLA-4 in brain tissue [1]: present at higher numbers | release of IL-10 and TGF-β [2]: stimulates the release of IL-10 and TGF-β | EAE development (MOG-immunized mice): resistant to EAE development | body weight [3]: started gaining weight after the first injection | paralysis (clinical score) [3]: recovered from paralysis | disease development (hind limb paralysis) (MC-1R deficient mice): developed hind limb paralysis similar to PBS treated controls | expression of tissue destruction marker APP in the brain (brain tissue of EAE mice; immunofluorescence): Dramatically reduced expression | expression of tissue inflammation marker RILPL2 in the brain (brain tissue of EAE mice; immunofluorescence): Dramatically reduced expression | mononuclear pro-inflammatory cells infiltrating the brain (H&E staining) (brain tissue of EAE mice): almost no cell infiltrates were detectable | myelination of the brain (luxol fast blue staining) (brain tissue of EAE mice): tremendous re-myelination | reduced infiltration of Th1 cells in the CNS [4]: 2 factor | reduced infiltration of Th17 cells in the CNS [4]: 5 factor | disease severity (DEREG mice): reduced disease severity | DC expression of PD-L1 or IL-10 (dendritic cells): increased levels | DC maturation markers CD80 and IFN-γ (dendritic cells): down-regulated

melanotan-II
nerve regeneration and neuroprotection [5]: effective in nerve regeneration and neuroprotection
